Test results published in patent US20050004007A1, “Promotion of adoptosis in cancer cells by co-administration of cyclin dependent kinase inhibitiors and cellular differentiation agents” (priority 2000, published 2005).

Key:
[1] = tested on: HL-60 human promyelocytic leukemia cells; assay: morphological assessment of apoptosis; assay type: cell-based; details: 3, 5, or 10 μM ATRA, 80 nM FP
Description: Cell culture. The myelomonocytic leukemia cell line U937 was derived from a patient with histiocytic lymphoma and was obtained from American Type Culture Collection. The HL-60 cell line was derived from a patient with acute promyelocytic leukemia as previously described [Grant et al. 1992]. U937 and HL-60 cells were maintained in logarithmic growth phase by culturing in suspension in phenol red-free RPMI-1640 (Life Technologies, Inc., Grand Island, N.Y.) and 10% (v/v) fetal calf serum (Hyclone, Logan, Utah), in a humidified atmosphere (95% air/5% CO2) at 37° C. To obtain antisense-expressing cell lines, U937 cells were transfected by electroporation with a pREP4 vector (Invitrogen; Carlsbad, Calif.) or the pREP4 vector containing the p21^WAF1/CIP1 coding region in an antisense orientation as previously described [Wang et al. 1999]. […]
Morphological assessment of apoptosis. U937 cells were evaluated for apoptosis by morphological assessment of Wright and Giemsa-stained cytospin preparations. At designated times, cells were transferred to slides by cytocentrifugation, fixed, stained, and evaluated under light microscopy for treatment-induced apoptosis. […] Five or more randomly selected fields, encompassing a total≧500 cells/slide, were evaluated to determine the percentage of apoptotic cells for each treatment condition.

[2] = tested on: U937 myelomonocytic human leukemia cells; assay: percent cell death; assay type: cell-based; details: 1 μM SAHA, 100 nM FP, 24 hours after administration
[3] = tested on: p27KIP1; assay: Western analysis of p27KIP1 expression in U937 cells; assay type: cell-based, human; details: 10 nM PMA, FP 50-100 nM, 24 h
Description: Western analysis. Equal quantities of protein (15 μg/condition for MAPK, 40 μg/condition for cytochrome c, or 25 μg/condition) were separated by SDS-PAGE [underphosporylated pRB (7.5%), poly(ADP-ribose)polymerase or PARP (8.0%), p44/p42 MAPK (10%), p21, p27, procaspase 3 (12%), and cytochrome c (15%)] and electroblotted onto nitrocellulose. Western analysis of p44/p42 MAPK protein was performed according to the manufacturer's instructions (New England Biolabs); otherwise, studies were performed as previously described [Wang et al, 1998]. Briefly, U937 cells (5×10^6) were pelleted by centrifugation, resuspended in 50 μl PBS, lysed by the addition of 2× Laemmli buffer and boiled for 5 min. Proteins were quantified with Coomassie protein assay reagent. Blots were blocked in PBS-T/5% milk, washed twice with PBS-T, and incubated overnight at 4° C. with the appropriate primary antibody. The blots were washed with PBS-T and incubated with a horseradish-peroxidase conjugated secondary antibody diluted appropriately in PBS-T/5% mill. […]
Alternatively, whole cell-pellets were washed twice in PBS, resuspended in PBS, and lysed by the addition of I volume of loading buffer. Lysates were boiled for 10 min, centrifuged at 12,800 g for 5 min and quantified using Coomassie protein assay reagent (Pierce, Rockfold, Ill.). […]

[4] = tested on: XIAP; assay: Western analysis of XIAP in U937 cells; assay type: cell-based, human; details: FP 100 nM, SB 1 mM
Description: Alternatively, whole cell-pellets were washed twice in PBS, resuspended in PBS, and lysed by the addition of I volume of loading buffer. Lysates were boiled for 10 min, centrifuged at 12,800 g for 5 min and quantified using Coomassie protein assay reagent (Pierce, Rockfold, Ill.). 25 μg of total proteins per point were separated by SDS-PAGE and electro-blotted to nitrocellulose. The blots were blocked in 5% non-fat milk in PBS-T and probed for 1 h with the appropriate dilution of primary antibody. Blots were washed 3×10 min in PBS-T and then incubated with a 1:2000 dilution of peroxidase-conjugated secondary antibody for 1 h at room temperature. Blots were again washed 3×10 min in PBS-T and then developed by enhanced chemiluminesence. Where indicated, blots were stripped and re-probed with antibodies directed against actin. […]

`CN1CC[C@H](c2c(O)cc(O)c3c(=O)cc(-c4ccccc4Cl)oc23)[C@H](O)C1` [FP, Flavopiridol] was tested, and the “% apoptosis” value [1] was “minimal effect”, the cell death [2] was “modest level of cell death” and the p27KIP1 expression [3] was “no effect”. The “levels of XIAP” value [4] was “modest decreases”.
